Measurements: ChEMBL document CHEMBL5696442, “Discovery of type II inhibitors of TGFβ-activated kinase 1 (TAK1) and mitogen-activated protein kinase kinase kinase kinase 2 (MAP4K2)” (J Med Chem, 2015)
Active and inactive are the calls of the source. No cut-off for these calls is given here.

What was measured:
[1] = biological target: Serine/threonine-protein kinase 32C (Homo sapiens) (UniProt Q86UX6); test: Inhibition of YANK3 Lys2 labeling site in human Huh-7 cells at 1 uM by KiNativ Profiling analysis relative to control; format: cell-based
[2] = biological target: Serine/threonine-protein kinase MARK2 (Homo sapiens) (UniProt Q7KZI7); test: Inhibition of MARK2 Lys2 labeling site harbouring EVAIKIIDKTQLNPTSLQK in human Huh-7 cells at 1 uM by KiNativ Profiling analysis relative to control; format: cell-based
[3] = biological target: Serine/threonine-protein kinase MARK2 (Homo sapiens) (UniProt Q7KZI7); test: Inhibition of MARK2 Lys2 labeling site harbouring DLKAENLLLDADMNIK in human Huh-7 cells at 1 uM by KiNativ Profiling analysis relative to control; format: cell-based
[4] = biological target: Interleukin-1 receptor-associated kinase 3 (Homo sapiens) (UniProt Q9Y616); test: Inhibition of IRAK3 (unknown origin) at 10 uM by Ambit Kinomescan binding assay
[5] = biological target: Cyclin-dependent kinase 8 (Homo sapiens) (UniProt P49336); test: Inhibition of CDK8 Lys2 labeling site in human A-375 cells at 0.5 uM by KiNativ Profiling analysis relative to control; format: cell-based
[6] = biological target: Myosin light chain kinase (Homo sapiens) (UniProt Q32MK0); test: Inhibition of MLCK (unknown origin) at 10 uM by Ambit Kinomescan binding assay
[7] = biological target: T1, Serine/threonine-protein kinase LATS1 (Homo sapiens) (UniProt O95835); test: Inhibition of LATS1 Lys2 labeling site in human A-375 cells at 0.5 uM by KiNativ Profiling analysis relative to control; format: cell-based
T1 sequence (whole entry): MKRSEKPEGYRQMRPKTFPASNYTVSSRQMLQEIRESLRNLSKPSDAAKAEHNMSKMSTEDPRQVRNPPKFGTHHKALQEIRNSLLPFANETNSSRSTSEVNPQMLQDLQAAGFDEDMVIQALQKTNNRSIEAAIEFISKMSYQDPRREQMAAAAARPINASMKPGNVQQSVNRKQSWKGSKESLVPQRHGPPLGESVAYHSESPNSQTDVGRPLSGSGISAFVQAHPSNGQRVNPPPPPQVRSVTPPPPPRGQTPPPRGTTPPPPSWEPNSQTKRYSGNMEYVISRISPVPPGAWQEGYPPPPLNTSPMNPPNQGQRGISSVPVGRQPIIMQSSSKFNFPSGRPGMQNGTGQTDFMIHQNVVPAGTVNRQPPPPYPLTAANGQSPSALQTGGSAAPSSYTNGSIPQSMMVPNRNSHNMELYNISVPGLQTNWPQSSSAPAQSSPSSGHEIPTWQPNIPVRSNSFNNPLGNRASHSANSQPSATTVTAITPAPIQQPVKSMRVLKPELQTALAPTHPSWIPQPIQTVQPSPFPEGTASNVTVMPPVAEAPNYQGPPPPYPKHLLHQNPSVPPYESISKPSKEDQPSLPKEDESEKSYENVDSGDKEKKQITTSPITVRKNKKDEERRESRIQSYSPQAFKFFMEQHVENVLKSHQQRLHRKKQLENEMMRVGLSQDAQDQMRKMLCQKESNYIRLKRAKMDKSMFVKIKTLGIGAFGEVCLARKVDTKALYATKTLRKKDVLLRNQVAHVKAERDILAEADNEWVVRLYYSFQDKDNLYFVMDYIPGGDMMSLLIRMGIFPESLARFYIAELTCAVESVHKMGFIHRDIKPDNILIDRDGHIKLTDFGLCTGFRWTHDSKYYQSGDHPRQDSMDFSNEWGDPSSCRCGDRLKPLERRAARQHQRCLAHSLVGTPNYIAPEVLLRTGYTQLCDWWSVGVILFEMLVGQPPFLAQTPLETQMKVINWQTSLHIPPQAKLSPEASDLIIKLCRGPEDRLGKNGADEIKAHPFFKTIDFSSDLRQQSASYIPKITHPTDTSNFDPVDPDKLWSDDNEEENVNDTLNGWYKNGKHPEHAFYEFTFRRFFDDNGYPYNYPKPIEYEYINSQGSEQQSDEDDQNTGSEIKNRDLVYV

[8] = biological target: Casein kinase I isoform alpha-like (Homo sapiens) (UniProt Q8N752); test: Inhibition of CSNK1A1L (unknown origin) at 10 uM by Ambit Kinomescan binding assay
[9] = biological target: Serine/threonine-protein kinase DCLK3 (Homo sapiens) (UniProt Q9C098); test: Inhibition of DCAMKL3 (unknown origin) at 1 uM by Ambit Kinomescan binding assay relative to control; values are per cent of control
[10] = tested on: Tyrosine-protein kinase ABL1 (Homo sapiens), P00519 [H396P]; test: Inhibition of phosphorylated ABL1 H396P mutant (unknown origin) at 1 uM by Ambit Kinomescan binding assay relative to control; values are per cent of control
[11] = biological target: T2, Mitogen-activated protein kinase kinase kinase 3 (Homo sapiens) (UniProt Q99759); test: Inhibition of MAP3K3 (unknown origin) at 1 uM by Ambit Kinomescan binding assay relative to control; values are per cent of control
T2 sequence (whole entry): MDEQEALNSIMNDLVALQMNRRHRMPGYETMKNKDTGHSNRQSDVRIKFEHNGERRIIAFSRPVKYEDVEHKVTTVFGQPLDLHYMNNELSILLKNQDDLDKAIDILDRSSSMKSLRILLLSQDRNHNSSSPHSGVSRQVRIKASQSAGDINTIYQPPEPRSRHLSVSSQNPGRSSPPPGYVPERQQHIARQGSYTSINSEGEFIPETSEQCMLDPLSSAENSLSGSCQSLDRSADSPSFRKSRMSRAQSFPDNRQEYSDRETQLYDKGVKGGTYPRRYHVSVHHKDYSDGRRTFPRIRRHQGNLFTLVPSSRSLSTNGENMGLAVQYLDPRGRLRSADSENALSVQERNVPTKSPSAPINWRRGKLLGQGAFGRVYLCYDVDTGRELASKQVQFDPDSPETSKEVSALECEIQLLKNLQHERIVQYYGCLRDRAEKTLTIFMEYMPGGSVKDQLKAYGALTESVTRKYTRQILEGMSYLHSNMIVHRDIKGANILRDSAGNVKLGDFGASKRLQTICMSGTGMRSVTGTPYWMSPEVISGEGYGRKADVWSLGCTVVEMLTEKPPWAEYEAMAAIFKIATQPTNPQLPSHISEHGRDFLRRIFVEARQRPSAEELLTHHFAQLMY

[12] = tested on: Proto-oncogene tyrosine-protein kinase receptor Ret (Homo sapiens), P07949 [V804L]; test: Inhibition of RET V804L mutant (unknown origin) at 1 uM by Ambit Kinomescan binding assay relative to control; values are per cent of control
[13] = biological target: Serine/threonine-protein kinase pim-1 (Homo sapiens) (UniProt P11309); test: Inhibition of PIM1 (unknown origin) at 1 uM by Ambit Kinomescan binding assay relative to control; values are per cent of control
[14] = biological target: Serine/threonine-protein kinase MARK2 (Homo sapiens) (UniProt Q7KZI7); test: Inhibition of MARK2 Lys2 labeling site harbouring DLKAENLLLDADMNIK in human A-375 cells at 0.5 uM by KiNativ Profiling analysis relative to control; format: cell-based

Chain of Serine/threonine-protein kinase MARK2 (Homo sapiens) (Q7KZI7 whole entry): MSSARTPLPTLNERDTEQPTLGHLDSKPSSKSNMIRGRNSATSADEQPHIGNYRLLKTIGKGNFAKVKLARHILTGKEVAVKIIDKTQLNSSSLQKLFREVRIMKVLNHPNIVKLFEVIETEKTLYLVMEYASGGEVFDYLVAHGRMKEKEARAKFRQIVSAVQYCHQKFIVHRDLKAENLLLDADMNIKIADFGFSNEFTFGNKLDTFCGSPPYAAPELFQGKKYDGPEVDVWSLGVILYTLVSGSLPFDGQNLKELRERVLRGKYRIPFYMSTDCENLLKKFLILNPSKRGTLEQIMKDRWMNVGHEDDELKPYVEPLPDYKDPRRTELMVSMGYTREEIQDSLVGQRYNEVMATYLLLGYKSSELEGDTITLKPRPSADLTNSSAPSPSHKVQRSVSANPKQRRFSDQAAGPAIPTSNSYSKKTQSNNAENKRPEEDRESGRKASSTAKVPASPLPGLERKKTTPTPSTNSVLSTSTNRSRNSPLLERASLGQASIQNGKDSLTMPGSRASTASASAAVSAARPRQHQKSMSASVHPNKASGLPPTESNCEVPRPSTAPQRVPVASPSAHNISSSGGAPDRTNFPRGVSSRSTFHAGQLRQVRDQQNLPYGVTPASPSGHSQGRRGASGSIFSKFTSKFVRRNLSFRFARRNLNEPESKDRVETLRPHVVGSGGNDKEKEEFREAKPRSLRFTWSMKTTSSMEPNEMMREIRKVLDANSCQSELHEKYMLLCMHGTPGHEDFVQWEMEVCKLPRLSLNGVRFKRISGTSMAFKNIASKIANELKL
Chain of Serine/threonine-protein kinase pim-1 (Homo sapiens) (P11309 whole entry, looked up): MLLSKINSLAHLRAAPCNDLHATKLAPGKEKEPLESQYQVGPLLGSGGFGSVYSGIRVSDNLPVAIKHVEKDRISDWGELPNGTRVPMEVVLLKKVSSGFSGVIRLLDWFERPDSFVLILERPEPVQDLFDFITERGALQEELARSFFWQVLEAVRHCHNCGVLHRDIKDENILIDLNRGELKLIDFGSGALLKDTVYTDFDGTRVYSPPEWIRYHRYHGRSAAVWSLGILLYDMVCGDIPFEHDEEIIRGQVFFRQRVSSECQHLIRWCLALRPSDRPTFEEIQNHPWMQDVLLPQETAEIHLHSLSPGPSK
Chain of Serine/threonine-protein kinase 32C (Homo sapiens) (Q86UX6 whole entry): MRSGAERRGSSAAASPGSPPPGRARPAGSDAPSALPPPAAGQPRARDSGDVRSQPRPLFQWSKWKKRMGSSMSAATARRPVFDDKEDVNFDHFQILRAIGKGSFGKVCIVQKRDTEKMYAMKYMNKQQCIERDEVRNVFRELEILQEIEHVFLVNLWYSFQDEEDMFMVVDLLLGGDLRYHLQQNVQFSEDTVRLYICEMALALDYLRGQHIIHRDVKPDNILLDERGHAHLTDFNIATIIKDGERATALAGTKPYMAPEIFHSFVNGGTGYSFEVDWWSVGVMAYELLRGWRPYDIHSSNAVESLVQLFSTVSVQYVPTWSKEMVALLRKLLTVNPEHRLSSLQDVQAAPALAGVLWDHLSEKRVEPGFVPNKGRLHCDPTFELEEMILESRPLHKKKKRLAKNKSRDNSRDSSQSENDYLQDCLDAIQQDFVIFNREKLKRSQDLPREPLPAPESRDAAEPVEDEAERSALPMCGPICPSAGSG
Chain of Serine/threonine-protein kinase DCLK3 (Homo sapiens) (Q9C098 whole entry): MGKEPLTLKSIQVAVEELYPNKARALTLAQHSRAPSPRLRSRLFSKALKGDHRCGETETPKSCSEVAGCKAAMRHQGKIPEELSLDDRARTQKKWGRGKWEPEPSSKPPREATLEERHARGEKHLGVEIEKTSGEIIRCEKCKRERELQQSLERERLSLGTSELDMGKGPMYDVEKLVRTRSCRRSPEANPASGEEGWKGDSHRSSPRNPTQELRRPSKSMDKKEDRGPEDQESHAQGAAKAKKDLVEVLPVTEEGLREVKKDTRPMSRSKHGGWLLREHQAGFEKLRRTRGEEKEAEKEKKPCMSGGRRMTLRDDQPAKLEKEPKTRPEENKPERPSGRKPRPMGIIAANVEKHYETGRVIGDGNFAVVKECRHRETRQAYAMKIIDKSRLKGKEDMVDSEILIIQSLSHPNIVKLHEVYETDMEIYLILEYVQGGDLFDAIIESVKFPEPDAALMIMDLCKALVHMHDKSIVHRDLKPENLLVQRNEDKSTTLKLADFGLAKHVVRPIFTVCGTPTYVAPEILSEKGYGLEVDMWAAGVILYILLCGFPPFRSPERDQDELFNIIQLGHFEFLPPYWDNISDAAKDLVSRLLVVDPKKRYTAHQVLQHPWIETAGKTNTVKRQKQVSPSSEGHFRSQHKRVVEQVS
Chain of Cyclin-dependent kinase 8 (Homo sapiens) (P49336 whole entry): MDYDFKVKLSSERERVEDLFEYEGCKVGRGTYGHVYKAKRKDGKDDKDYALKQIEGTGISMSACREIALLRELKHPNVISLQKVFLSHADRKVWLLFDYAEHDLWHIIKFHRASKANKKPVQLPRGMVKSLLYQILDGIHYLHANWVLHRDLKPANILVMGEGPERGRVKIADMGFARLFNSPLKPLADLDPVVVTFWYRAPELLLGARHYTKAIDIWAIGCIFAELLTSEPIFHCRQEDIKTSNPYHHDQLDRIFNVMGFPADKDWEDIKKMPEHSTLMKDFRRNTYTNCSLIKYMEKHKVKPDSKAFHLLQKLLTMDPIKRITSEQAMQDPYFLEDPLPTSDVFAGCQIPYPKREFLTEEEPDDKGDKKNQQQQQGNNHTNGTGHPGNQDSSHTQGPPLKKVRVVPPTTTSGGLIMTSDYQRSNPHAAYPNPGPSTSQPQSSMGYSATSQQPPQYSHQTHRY
Chain of Myosin light chain kinase (Homo sapiens) (Q32MK0 whole entry): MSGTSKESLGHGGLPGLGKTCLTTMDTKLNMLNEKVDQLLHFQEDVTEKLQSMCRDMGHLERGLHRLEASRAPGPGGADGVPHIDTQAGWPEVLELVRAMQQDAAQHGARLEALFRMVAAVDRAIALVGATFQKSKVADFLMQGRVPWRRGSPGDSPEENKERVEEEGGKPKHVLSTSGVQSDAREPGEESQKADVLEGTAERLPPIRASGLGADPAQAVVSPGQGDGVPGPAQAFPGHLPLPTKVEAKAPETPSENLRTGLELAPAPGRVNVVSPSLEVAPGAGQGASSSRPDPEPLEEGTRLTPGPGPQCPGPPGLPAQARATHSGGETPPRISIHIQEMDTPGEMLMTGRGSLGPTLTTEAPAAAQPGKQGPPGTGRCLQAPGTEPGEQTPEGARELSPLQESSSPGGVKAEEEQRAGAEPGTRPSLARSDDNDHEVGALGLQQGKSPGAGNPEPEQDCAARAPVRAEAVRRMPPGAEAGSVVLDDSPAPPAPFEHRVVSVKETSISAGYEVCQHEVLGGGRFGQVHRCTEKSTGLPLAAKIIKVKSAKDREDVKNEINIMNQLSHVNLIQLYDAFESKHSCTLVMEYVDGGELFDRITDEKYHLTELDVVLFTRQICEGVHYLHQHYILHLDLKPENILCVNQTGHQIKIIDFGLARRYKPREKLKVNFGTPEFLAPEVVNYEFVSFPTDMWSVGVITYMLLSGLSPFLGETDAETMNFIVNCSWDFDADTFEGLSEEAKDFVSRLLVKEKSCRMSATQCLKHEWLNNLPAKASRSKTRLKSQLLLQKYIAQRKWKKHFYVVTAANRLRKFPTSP
Chain of Interleukin-1 receptor-associated kinase 3 (Homo sapiens) (Q9Y616 whole entry): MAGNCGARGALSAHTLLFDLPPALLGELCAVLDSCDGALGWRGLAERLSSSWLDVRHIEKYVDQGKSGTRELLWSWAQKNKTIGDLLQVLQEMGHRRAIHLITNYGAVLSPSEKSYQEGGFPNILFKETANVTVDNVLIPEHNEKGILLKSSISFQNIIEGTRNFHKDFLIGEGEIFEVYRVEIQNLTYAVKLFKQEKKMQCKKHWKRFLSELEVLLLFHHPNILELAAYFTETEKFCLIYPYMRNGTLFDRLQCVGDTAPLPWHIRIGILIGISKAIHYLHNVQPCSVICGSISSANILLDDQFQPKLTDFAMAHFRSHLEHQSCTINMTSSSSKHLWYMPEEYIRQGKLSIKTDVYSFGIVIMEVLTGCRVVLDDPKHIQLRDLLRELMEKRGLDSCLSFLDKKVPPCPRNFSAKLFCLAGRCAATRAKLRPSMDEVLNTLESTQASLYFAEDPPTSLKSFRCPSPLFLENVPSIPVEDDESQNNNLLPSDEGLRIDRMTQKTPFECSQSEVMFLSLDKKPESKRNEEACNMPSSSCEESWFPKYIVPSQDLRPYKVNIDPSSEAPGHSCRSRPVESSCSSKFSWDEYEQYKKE
Chain of Casein kinase I isoform alpha-like (Homo sapiens) (Q8N752 whole entry, canonical isoform): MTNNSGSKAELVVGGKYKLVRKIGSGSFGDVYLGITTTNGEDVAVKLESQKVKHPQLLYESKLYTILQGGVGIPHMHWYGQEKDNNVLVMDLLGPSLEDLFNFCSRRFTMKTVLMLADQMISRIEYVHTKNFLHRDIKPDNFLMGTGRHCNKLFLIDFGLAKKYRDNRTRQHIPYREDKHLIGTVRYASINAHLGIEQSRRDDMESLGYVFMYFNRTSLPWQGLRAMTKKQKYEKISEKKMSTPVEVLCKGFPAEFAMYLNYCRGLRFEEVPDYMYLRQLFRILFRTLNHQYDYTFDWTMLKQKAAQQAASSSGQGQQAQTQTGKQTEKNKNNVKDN

## CNc1cc(Oc2cc(C(=O)Nc3cc(N4CCN(C)CC4)cc(C(F)(F)F)c3)ccc2C)ncn1
[1]
  inhibition: 12.2%
[2]
  inhibition: 11.3%
[3]
  inhibition: 19.4%

## CCN1CCN(Cc2ccc(NC(=O)c3ccc(C)c(Oc4ccnc5[nH]ccc45)c3)cc2C(F)(F)F)CC1
[4]
  inhibition: inactive
[5]
  inhibition: 51.2%
[6]
  inhibition: inactive
[7]
  inhibition: -1.1%
[8]
  inhibition: inactive

## CCN1CCN(Cc2ccc(NC(=O)c3ccc(C)c(/C=C/c4cnc5[nH]ccc5c4OC)c3)cc2C(F)(F)F)CC1
[9]
  residual activity: 100%
[10]
  percent of control: 0.8%
[11]
  residual activity: 2%
[12]
  percent of control: 3.4%
[13]
  residual activity: 100%
[14]
  inhibition: 9.1%
